From patent US20260000692A1, “Substituted N-(Pyridin-2-yl)Acetamide Derivatives as CDK12/13 Inhibitors” (Aurigene Oncology Limited, priority 2022, published 2026)

Target: CDK12 (Homo sapiens, UniProt Q9NYV4)
Assay: Biochemical assay for CDK12 (LANCE TR-FRET, IC50 determination)
Settings: for IC50: CDK12, IC50 class, read-out: IC50 μM (in range); for inhibition at 10 µM / CDK12 % Inhibition @ 10 μM: compound at 10 μM; for inhibition at 10 µM: read-out: CDK12 % Inhibition @ 10 μM
How it was run: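 30 nM CDK12 phosphorylated 100 nM ULight-4E-BP1 (Thr37/Thr46) peptide at 100 µM ATP, as printed, in HEPES pH 7.5 buffer with MgCl2 and DTT. Compound and enzyme were preincubated 60 min, then reacted 60 min at room temperature before stopping with EDTA and Eu anti-phospho antibody. TR-FRET 665/615 ratio gave sigmoidal IC50 fits.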

CDK12, sequence (Q9NYV4 whole entry): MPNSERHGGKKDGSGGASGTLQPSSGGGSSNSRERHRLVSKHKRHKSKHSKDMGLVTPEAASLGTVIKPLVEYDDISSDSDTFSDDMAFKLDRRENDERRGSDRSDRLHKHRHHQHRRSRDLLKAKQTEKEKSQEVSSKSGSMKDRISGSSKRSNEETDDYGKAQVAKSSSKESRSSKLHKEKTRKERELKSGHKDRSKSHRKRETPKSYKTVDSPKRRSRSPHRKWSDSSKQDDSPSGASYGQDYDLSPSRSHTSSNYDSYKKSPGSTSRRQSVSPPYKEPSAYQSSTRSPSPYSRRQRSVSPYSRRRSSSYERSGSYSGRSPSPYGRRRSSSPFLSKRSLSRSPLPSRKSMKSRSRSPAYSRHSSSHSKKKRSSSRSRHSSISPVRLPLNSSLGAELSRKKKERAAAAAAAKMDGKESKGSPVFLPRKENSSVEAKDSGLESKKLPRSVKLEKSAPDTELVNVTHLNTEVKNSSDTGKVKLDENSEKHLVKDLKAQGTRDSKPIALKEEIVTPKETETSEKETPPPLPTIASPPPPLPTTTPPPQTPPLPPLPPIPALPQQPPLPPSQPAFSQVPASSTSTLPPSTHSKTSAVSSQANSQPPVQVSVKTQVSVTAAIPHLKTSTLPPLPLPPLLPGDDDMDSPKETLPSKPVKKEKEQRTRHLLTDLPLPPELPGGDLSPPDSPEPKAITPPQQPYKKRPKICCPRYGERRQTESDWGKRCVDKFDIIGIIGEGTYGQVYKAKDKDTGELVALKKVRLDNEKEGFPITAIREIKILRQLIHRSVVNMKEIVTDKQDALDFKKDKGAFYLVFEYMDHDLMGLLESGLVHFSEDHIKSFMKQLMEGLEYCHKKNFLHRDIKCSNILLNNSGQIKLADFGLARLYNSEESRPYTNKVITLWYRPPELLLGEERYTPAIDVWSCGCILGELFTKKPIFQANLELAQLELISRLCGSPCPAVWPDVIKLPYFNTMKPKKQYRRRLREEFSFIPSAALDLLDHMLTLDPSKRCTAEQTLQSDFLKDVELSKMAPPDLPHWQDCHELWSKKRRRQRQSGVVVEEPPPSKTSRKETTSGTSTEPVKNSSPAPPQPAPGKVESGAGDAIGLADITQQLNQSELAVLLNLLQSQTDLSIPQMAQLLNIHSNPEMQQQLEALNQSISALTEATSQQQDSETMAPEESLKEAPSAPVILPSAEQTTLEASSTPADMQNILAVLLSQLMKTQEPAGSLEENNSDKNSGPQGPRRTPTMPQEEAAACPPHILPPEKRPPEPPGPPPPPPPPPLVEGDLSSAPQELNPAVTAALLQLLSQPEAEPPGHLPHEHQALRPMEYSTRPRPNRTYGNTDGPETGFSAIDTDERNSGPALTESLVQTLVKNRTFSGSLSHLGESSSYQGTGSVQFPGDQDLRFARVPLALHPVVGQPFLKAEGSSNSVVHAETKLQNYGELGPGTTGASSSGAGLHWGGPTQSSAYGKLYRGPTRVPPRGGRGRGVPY
CDK12, sequence (O75909 whole entry partner): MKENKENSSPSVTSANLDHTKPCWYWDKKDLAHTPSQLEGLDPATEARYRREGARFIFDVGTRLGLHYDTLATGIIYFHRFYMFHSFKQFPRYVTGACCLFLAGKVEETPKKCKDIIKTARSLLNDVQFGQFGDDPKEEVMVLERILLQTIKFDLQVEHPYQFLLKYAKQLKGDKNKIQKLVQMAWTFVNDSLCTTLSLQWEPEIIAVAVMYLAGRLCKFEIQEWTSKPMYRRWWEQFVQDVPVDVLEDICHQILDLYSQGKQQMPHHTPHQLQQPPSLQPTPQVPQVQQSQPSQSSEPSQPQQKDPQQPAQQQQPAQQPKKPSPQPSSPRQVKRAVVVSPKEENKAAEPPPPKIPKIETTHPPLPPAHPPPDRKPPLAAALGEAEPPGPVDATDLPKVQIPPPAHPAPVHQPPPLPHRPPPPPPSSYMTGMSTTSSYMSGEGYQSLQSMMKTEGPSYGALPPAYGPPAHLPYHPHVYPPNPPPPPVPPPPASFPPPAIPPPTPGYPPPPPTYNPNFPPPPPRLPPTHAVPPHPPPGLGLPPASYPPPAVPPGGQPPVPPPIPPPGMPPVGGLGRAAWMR

Row | SMILES | IC50 | inhibition at 10 µM | CDK12 % Inhibition @ 10 μM
1 | CNC(=O)C(C)Oc1cc(NC(=O)Cc2ccc(C3CCCN(C#N)C3)nc2)ncc1Cl (single isomer, unassigned) [Compound 88, 2-((5-chloro-2-(2-(6-(1-cyanopiperidin-3-yl)pyridin-3-yl)acetamido)pyridin-4-yl)oxy)-N-methylpropanamide] | > 0.1 µM | – | 79%
2 | N#CN1CCC=C(c2ccc(CC(=O)Nc3ccccn3)cn2)C1 [Compound 102, 2-(1′-cyano-1′,2′,5′,6′-tetrahydro-[2,3′-bipyridin]-5-yl)-N-(pyridin-2-yl)acetamide] | > 0.1 µM | 87% | –
3 | CC1(C)CC(Oc2cc(NC(=O)Cc3ccc(C4=CCN(C#N)CC4)nc3)ncc2Cl)CCN1 (stereo not drawn) [Compound 139, N-(5-chloro-4-((2,2-dimethylpiperidin-4-yl)oxy)pyridin-2-yl)-2-(1′-cyano-1′,2′,3′,6′-tetrahydro-[2,4′-bipyridin]-5-yl)acetamide] | 0.01 to 0.1 µM | 95% | –
4 | Cc1cc(CC(=O)Nc2ccc(Cl)cn2)cnc1C1=CCN(C#N)CC1 [Compound 13, N-(5-chloropyridin-2-yl)-2-(1′-cyano-3-methyl-1′,2′,3′,6′-tetrahydro-[2,4′-bipyridin]-5-yl)acetamide] | 0.01 to 0.1 µM | 75% | –
5 | COc1cc(NC(=O)Cc2ccc(-c3cc(OC4CCN(C)CC4)cc(C#N)n3)nc2)ncc1Cl [Compound 176, N-(5-chloro-4-methoxypyridin-2-yl)-2-(6′-cyano-4′-((1-methylpiperidin-4-yl)oxy)-[2,2′-bipyridin]-5-yl)acetamide] | 0.01 to 0.1 µM | 96% | –
6 | COc1cc(NC(=O)Cc2ccc(-c3cc(N4CC(OC)C4)cc(C#N)n3)nc2)ncc1Cl [Compound 193, N-(5-chloro-4-methoxypyridin-2-yl)-2-(6′-cyano-4′-(3-methoxyazetidin-1-yl)-[2,2′-bipyridin]-5-yl)acetamide] | > 0.1 µM | 68% | –
7 | COc1cc(NC(=O)Cc2ccc(-c3cccc(C#N)c3)nc2)ncc1Cl [Compound 189, N-(5-chloro-4-methoxypyridin-2-yl)-2-(6-(3-cyanophenyl)pyridin-3-yl)acetamide] | > 0.1 µM | 82% | –
8 | N#Cc1cc(-c2ccc(CC(=O)Nc3cc(O[C@@H]4CCOC4)c(Cl)cn3)cn2)ccn1 [Compound 145, (R)-N-(5-chloro-4-((tetrahydrofuran-3-yl)oxy)pyridin-2-yl)-2-(2′-cyano-[2,4′-bipyridin]-5-yl)acetamide] | 0.01 to 0.1 µM | 79% | –
9 | COc1cc(NC(=O)Cc2ccc(C3CCN(C#N)CC3)nc2)ncc1C1CC1 [Compound 124, 2-(6-(1-cyanopiperidin-4-yl)pyridin-3-yl)-N-(5-cyclopropyl-4-methoxypyridin-2-yl)acetamide] | > 0.1 µM | 86% | –
10 | N#CN1CCCC(c2ccc(CC(=O)Nc3cc(O[C@H]4CCOC4)c(Cl)cn3)cn2)C1 (single isomer, unassigned) [Compound 97] | 0.01 to 0.1 µM | – | 96%
11 | COc1cc(NC(=O)Cc2ccc(C3=CCN(C#N)C(C)C3)nc2)ncc1Cl (single isomer, unassigned) [Compound 66, N-(5-chloro-4-methoxypyridin-2-yl)-2-(1′-cyano-2′-methyl-1′,2′,3′,6′-tetrahydro-[2,4′-bipyridin]-5-yl)acetamide] | 0.01 to 0.1 µM | 88% | –

More lines, now with the values ahead:

Row | IC50 | inhibition at 10 µM | CDK12 % Inhibition @ 10 μM | SMILES
12 | < 0.01 µM | 94% | – | CC(C)Oc1cc(NC(=O)Cc2ccc(C3=CCN(C#N)CC3)nc2)ncc1Cl [Compound 21, N-(5-chloro-4-isopropoxypyridin-2-yl)-2-(1′-cyano-1′,2′,3′,6′-tetrahydro-[2,4′-bipyridin]-5-yl)acetamide]
13 | 0.01 to 0.1 µM | 98% | – | COc1cc(NC(=O)Cc2ccc(C3=CC4CN(C#N)CC4C3)cc2)ncc1Cl (stereo not drawn) [Compound 115, N-(5-chloro-4-methoxypyridin-2-yl)-2-(4-(2-cyano-1,2,3,3a,4,6a-hexahydrocyclopenta[c]pyrrol-5-yl)phenyl)acetamide]
14 | 0.01 to 0.1 µM | 80% | – | COc1cc(NC(=O)Cc2ccc(-c3cc(OC4COC4)cc(C#N)n3)nc2)ncc1Cl [Compound 184, N-(5-chloro-4-methoxypyridin-2-yl)-2-(6′-cyano-4′-(oxetan-3-yloxy)-[2,2′-bipyridin]-5-yl)acetamide]
15 | 0.01 to 0.1 µM | 85% | – | N#CN1CCC=C(c2ccc(CC(=O)Nc3cnc(Cl)cn3)cn2)C1 [Compound 108, N-(5-chloropyrazin-2-yl)-2-(1′-cyano-1′,2′,5′,6′-tetrahydro-[2,3′-bipyridin]-5-yl)acetamide]
16 | 0.01 to 0.1 µM | 90% | – | COc1cc(NC(=O)Cc2ccc(-c3cc(N(C)CCN(C)C)cc(C#N)n3)nc2)ncc1Cl [Compound 173]
17 | < 0.01 µM | 91% | – | N#CN1CC=C(c2ccc(CC(=O)Nc3cc(OC4CCOCC4)c(Cl)cn3)cn2)CC1 [Compound 19, N-(5-chloro-4-((tetrahydro-2H-pyran-4-yl)oxy)pyridin-2-yl)-2-(1′-cyano-1′,2′,3′,6′-tetrahydro-[2,4′-bipyridin]-5-yl)acetamide]
18 | < 0.01 µM | 72% | – | CN1CCC(Oc2cc(NC(=O)Cc3ccc(C4=CCN(C#N)CC4)nc3)ncc2Cl)C1 (stereo not drawn) [Compound 10, N-(5-chloro-4-((1-methylpyrrolidin-3-yl)oxy)pyridin-2-yl)-2-(1′-cyano-1′,2′,3′,6′-tetrahydro-[2,4′-bipyridin]-5-yl)acetamide]
19 | < 0.01 µM | 89% | – | COc1cc(NC(=O)Cc2cnc(C3=CCN(C#N)CC3)c(OC)c2)ncc1Cl [Compound 120, N-(5-chloro-4-methoxypyridin-2-yl)-2-(1′-cyano-3-methoxy-1′,2′,3′,6′-tetrahydro-[2,4′-bipyridin]-5-yl)acetamide]
20 | < 0.01 µM | 90% | – | COc1cc(NC(=O)C(C)c2ccc(C3=CCCN(C#N)C3)nc2)ncc1Cl (stereo not drawn) [Compound 48, N-(5-chloro-4-methoxypyridin-2-yl)-2-(1′-cyano-1′,2′,5′,6′-tetrahydro-[2,3′-bipyridin]-5-yl)propanamide]
21 | < 0.01 µM | 100% | – | N#CN1CCC=C(c2ccc(CC(=O)Nc3cc(Cl)c(Cl)cn3)cn2)C1 [Compound 105, 2-(1′-cyano-1′,2′,5′,6′-tetrahydro-[2,3′-bipyridin]-5-yl)-N-(4,5-dichloropyridin-2-yl)acetamide]
